Test results as given in PMC5750217 (Nature Communications, 2018).
Residue numbers refer to the chain shown, from its start.

What was measured:
ASCT1 = target: T1, ASCT1 (Homo sapiens, UniProt P43007); experiment: Two electrode voltage clamp, substrate-activated anion current in oocytes expressing ASCT1; format: cell-based
T1 construct: expressed in transfected cells; host or cells: Xenopus laevis oocytes (cRNA injection)
T1 sequence (P43007 1-532): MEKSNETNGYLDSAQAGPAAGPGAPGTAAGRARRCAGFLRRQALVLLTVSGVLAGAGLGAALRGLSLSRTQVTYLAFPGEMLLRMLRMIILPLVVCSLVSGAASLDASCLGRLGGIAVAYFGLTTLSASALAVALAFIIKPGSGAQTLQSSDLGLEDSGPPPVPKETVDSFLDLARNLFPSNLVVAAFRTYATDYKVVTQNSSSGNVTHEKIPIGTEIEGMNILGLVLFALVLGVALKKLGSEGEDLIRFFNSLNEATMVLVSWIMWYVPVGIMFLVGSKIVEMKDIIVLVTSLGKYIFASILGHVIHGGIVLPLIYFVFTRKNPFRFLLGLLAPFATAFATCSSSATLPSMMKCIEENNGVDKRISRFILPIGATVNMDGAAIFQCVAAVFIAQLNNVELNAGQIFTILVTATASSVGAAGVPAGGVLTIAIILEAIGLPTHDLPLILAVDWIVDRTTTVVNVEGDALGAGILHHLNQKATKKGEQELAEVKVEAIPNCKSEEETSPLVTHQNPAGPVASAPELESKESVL
Method: (§1) All chemicals were obtained from Sigma unless otherwise stated. Stage V oocytes were harvested from female Xenopus laevis (frogs) which were obtained from Nasco (Fort Alkinson, USA). Frogs were anaesthetised with 6.5 mM tricaine neutralised with 7.14 mM sodium bicarbonate. After making an incision in the abdomen of the frog, ovarian sacs were removed and stored in OR-2 buffer (82.5 mM NaCl, 2 mM KCl, 1 mM MgCl2, 5 mM hemisodium HEPES, pH 7.5). This surgical procedure follows a protocol (#2016/970) approved by the University of Sydney Animal Ethics Committee under the Australian Code of Practice for the Care and Use of Animals for Scientific Purposes. […]
(§2) After 2–4 days of microinjection, current recordings were made using the two electrode voltage clamp technique with a Geneclamp 500 amplifier (Axon Instruments, Foster City, CA) interfaced with a MacLab 2e chart recorder (ADI Instruments, Sydney, Australia) using the chart software, and a Digidata 1322A (Axon Instruments) controlled by an IBM-compatible computer using the pClamp software (version 10, Molecular Devices, Union City, CA). […] Current–voltage relationships were calculated by subtracting steady state current measurements in the absence of substrate from corresponding current measurements in the presence of substrate. […]

A1-T458S (mutant ASCT1) = target: T2, A1-T458S (mutant ASCT1) (Homo sapiens, UniProt P43007, T458S); experiment: Two electrode voltage clamp, substrate-activated anion current in oocytes expressing A1-T458S; format: cell-based; conditions: NO3−-containing buffer, current at +60 mV, dash = substrate did not generate currents
T2 construct: expressed in transfected cells; host or cells: Xenopus laevis oocytes (cRNA injection)
T2 sequence (P43007 1-532 T458S): T1 sequence (P43007 1-532) with T458S
Method: as §1, §2

Compound: N[C@@H](CCC(=O)Nc1ccc([N+](=O)[O-])cc1)C(=O)O [GPNA, glutamyl-p-nitroanilide]
- GPNA % inhibition of L-serine activated current (ASCT1; ASCT1, GPNA co-applied with EC50 of L-serine, 300 µM GPNA / 1 mM GPNA (Table 1 footnote)): 26 ± 3%

Compound: NC(=O)CC[C@H](N)C(=O)O [L-glutamine]
- EC50 of substrate-activated current (A1-T458S (mutant ASCT1)): does not respond

Compound: N[C@@H](CO)C(=O)O [L-serine]
- EC50 (ASCT1; ASCT1 in oocytes, NO3−-containing buffer, current at +60 mV, dash = substrate did not generate currents): 100 ± 20 µM
- EC50 (A1-T458S (mutant ASCT1)): 106 ± 4 µM
